The source of these data is publication PMC11926786, “Effect of Lipidation on the Structure, Oligomerization, and Aggregation of Glucagon-like Peptide 1” (Bioconjugate Chemistry, 2025).

Entries after “also recorded” stand apart in the source; their conditions may differ. Read-outs that look alike come from different tables or passages of the source. *1 amine or outer side, *2 acyl side, *3 side chain or, on linkers, in order; H or OH if unused. Where a SMILES comes first, the peptide text is derived from it. Side-chain parts run from the residue outwards. The star is where a group is joined. γGlu = O=C(O)[C@H](CCC(=O)[*:2])N[*:1]; Palmitoyl = CCCCCCCCCCCCCCCC(=O)*

For series [1] the following is noted: cited from earlier work.
On the set-up of series [2]: method as in 2 sources, one per row (each row's own in cited_ref): ref Venanzi et al., 20 ||| ref 20 = [20]; PMID 32780784; doi:10.1039/D0SM01011A; Venanzi M.; Savioli M.; Cimino R.; Gatto E.; Palleschi A.; Ripani G.; Cicero D.; Placidi E.; Orvieto F.; Bianchi E. A Spectroscopic and Molecular Dynamics Study on the Aggregation Process of. To be noted: semaglutide without C-terminal amidation, cited from earlier work.

Series [3] in a line: Aggregation behaviour and aggregate morphology of aged samples (TEM, far-UV CD). To be noted: 25 mM phosphate. It counts as physicochemical.
The nature of series [4]: Size-exclusion chromatography of oligomeric species. It counts as physicochemical. The conditions noted are these: freshly prepared, 135 μM. The protocol:
Analytical SEC was performed on an KTA FPLC system (GE Healthcare), using a Superdex 200 Increase 10/300 column (GE Healthcare). Samples were loaded using a 200 μL loop. Prior to loading, the samples were filtered through a 0.22 μm filter (Millex, PVDF Membrane) to avoid blocking the column by large aggregates. All samples were eluted at a flow rate of 0.75 mL min^–1 at room temperature, and UV absorbance detection at 280 nm through a 0.5 cm flow cell was used. A set of globular protein standards (GE Healthcare) was used to construct a calibration curve for the column, Figure S9.
Calibration curve for Superdex 200 Increase 10/300 column
Globular protein standards (GE Healthcare) were used for column calibration, (Fig. S9C). The gel phase
distribution parameter, Kav, of each protein standard was calculated as
where Ve is an elution volume of a protein standard, V0 is the void volume of the column (determined
used. The logarithm of the molecular weight of each protein standard was plotted against its Kav. A
linear regression of this plot was used to determine the molecular weight of any eluting species
For Stoke’s radius (RSt), a calibration plot of √−log(Kav) against
RSt and a linear regression was used.
Figure S9: Calibration of a Superdex 200 Increase 10/300 column. Calibrations on the molecular weight (A) and on the Stoke’s […]
For orientation: Size exclusion chromatography separates by hydrodynamic size, large species first.

Series [5] can be described thus: Isoelectric point by isoelectric focusing gel electrophoresis. The series is classed as physicochemical. The conditions noted are these: printed in Figure 1D. The protocol:
Figure 1D illustrates the solubility of each lipidated analogue and nonlipidated GLP-1-Am at different pH values. […] Isoelectric points (pI) of the analogues were determined using isoelectric focusing gel electrophoresis (Figure S1), and the determined values are given in Figure 1D in the column next to the solubility chart.

Series [6] can be described thus: Far-UV CD of freshly dissolved samples, α-helical content from MRE222. It counts as physicochemical. The conditions noted are these: 85 μM, 25 mM phosphate pH 7.5, room temperature, estimated from MRE222.
A short description of series [7]: Sedimentation velocity analytical ultracentrifugation of oligomeric species. The series is classed as physicochemical. To be noted: freshly prepared samples, pH 7.5; determined by both AUC and SEC. The protocol:
Sedimentation velocity experiments were performed using a Beckman Optima XL-I Analytical Ultracentrifuge equipped with an An-60 Ti rotor. Samples of 85 μM peptide concentration were freshly prepared before the measurement. After a 2 h temperature equilibration of samples in the centrifuge to 20 °C, the experiment was performed with centrifugation at 50,000 rpm. The interference sedimentation curves were collected as 150 scans (approximately 12 h run time) and fitted to a continuous c(s) distribution model implemented in the Sedfit program.[48],[52],[53] The sedimentation coefficient was corrected for the standard state of the water at 20 °C (s20,w). The molecular weight and relative amount of each detected species were calculated using the Sedfit program.

Series [8] can be described thus: pH-dependent peptide solubility. The series is classed as physicochemical. The conditions noted are these: from solid: ca. 0.5 mg lyophilized powder + 500 μL 25 mM phosphate, citrate or Tris; pH 2.5 to 8.5 in 0.5 steps; ca. 5 min, room temperature; 0.22 μm filtered; A280; soluble = concentrations above 50 μM, insoluble = not above 1 μM. The protocol: Figure 1D illustrates the solubility of each lipidated analogue and nonlipidated GLP-1-Am at different pH values. […] Isoelectric points (pI) of the analogues were determined using isoelectric focusing gel electrophoresis (Figure S1), and the determined values are given in Figure 1D in the column next to the solubility chart. […] It is interesting to note that these both form well-defined oligomeric states (see later sections), in which it is likely that the local chemical environment of the individual ionizable groups has changed. […] Although there have been attempts to rationalize the solubility and even develop solubility predictors for peptide/protein analogs containing non-natural amino acids and amino acid derivatives, the prediction of the solubility of lipidated analogues remains challenging due to its complexity.[43],[44]
The peptide solubility was tested in the individual buffers differing by 0.5 on the pH scale (i.e., pH 2.5, 3.0, 3.5, 4.0, ...). […] Subsequently, the concentration of the peptide was determined spectrophotometrically (Cary 60 UV–vis, Agilent Technologies) using the absorption at 280 nm and a theoretical extinction coefficient of 6990 M^–1 cm^–1 at 280 nm.

Regarding GLP-1, in series [1] (in vivo), the half-life in vivo result was “circa 2 min”.

Take “semaglutide: marketed lipidated GLP-1 analogue, stearic diacid (C18) lipidation at Lys20”: the half-life in vivo in series [1] (in vivo) is 170 h. Also, in series [2], the oligomeric state entry is “equilibrium of monomers and dimers”. Besides, the aggregation on incubation result in series [2] (ref Venanzi et al., 20) is on record as “aggregation was observed after several weeks of incubation”.

On to `CCCCCCCCCCCCCCCC(=O)N[C@@H](CCC(=O)NCCCC[C@H](NC(=O)[C@@H](N)Cc1c[nH]cn1)C(=O)N[C@@H](CCC(=O)O)C(=O)NCC(=O)N[C@H](C(=O)N[C@@H](Cc1ccccc1)C(=O)N[C@H](C(=O)N[C@@H](CO)C(=O)N[C@@H](CC(=O)O)C(=O)N[C@H](C(=O)N[C@@H](CO)C(=O)N[C@@H](CO)C(=O)N[C@@H](Cc1ccc(O)cc1)C(=O)N[C@@H](CC(C)C)C(=O)N[C@@H](CCC(=O)O)C(=O)NCC(=O)N[C@@H](CCC(N)=O)C(=O)N[C@@H](C)C(=O)N[C@@H](C)C(=O)N[C@@H](CCCNC(=N)N)C(=O)N[C@@H](CCC(=O)O)C(=O)N[C@@H](Cc1ccccc1)C(=O)N[C@H](C(=O)N[C@@H](C)C(=O)N[C@@H](Cc1c[nH]c2ccccc12)C(=O)N[C@@H](CCCNC(=N)N)C(=O)N[C@H](C(=O)N[C@@H](CCCNC(=N)N)C(=O)NCC(=O)N[C@@H](CCCNC(=N)N)C(=O)NCC(N)=O)C(C)C)[C@@H](C)CC)C(C)C)[C@@H](C)O)[C@@H](C)O)C(=O)O` [GLP-1-Am (2, γ-Glu-palm)] (H-HK([γGlu-Palmitoyl])EGTFTSDVSSYLEGQAAREFIAWRVRGRG-NH2), for which the “aggregation at pH 3” value in series [3] is on record as “rapidly aggregate forming short fibril-like species with high β-sheet content; also recorded: analogue not soluble; (at pH 3, there is rapid formation of β-structure-rich fibrils)”.

Turning to `CC[C@H](C)[C@H](NC(=O)[C@H](Cc1ccccc1)NC(=O)[C@H](CCC(=O)O)NC(=O)[C@H](CCCCN)NC(=O)[C@H](C)NC(=O)[C@H](C)NC(=O)[C@H](CCC(N)=O)NC(=O)CNC(=O)[C@H](CCC(=O)O)NC(=O)[C@H](CC(C)C)NC(=O)[C@H](Cc1ccc(O)cc1)NC(=O)[C@H](CO)NC(=O)[C@H](CO)NC(=O)[C@@H](NC(=O)[C@H](CC(=O)O)NC(=O)[C@H](CO)NC(=O)[C@@H](NC(=O)[C@H](Cc1ccccc1)NC(=O)[C@@H](NC(=O)CNC(=O)[C@H](CCC(=O)O)NC(=O)[C@H](C)NC(=O)[C@@H](N)Cc1cnc[nH]1)[C@@H](C)O)[C@@H](C)O)C(C)C)C(=O)N[C@@H](C)C(=O)N[C@@H](Cc1c[nH]c2ccccc12)C(=O)N[C@@H](CC(C)C)C(=O)N[C@H](C(=O)N[C@@H](CCCCN)C(=O)NCC(=O)N[C@@H](CCCNC(=N)N)C(=O)NCC(N)=O)C(C)C` [GLP-1-Am], the “SEC peak elution volume(s)” value in series [4] (25 mM phosphate pH 7.5, Superdex 200 Increase 10/300, 0.75 mL min–1, room temperature, A280) stood at 19.2 mL. Moreover, the SEC n-mer in series [4] (25 mM phosphate pH 7.5, Superdex 200 Increase 10/300, calculated from calibration with globular protein standards) is 1–2. Moreover, in series [5], the “isoelectric point (pI)” value is given as 7.4. Further, the α-helix content in series [6] was 21%. Further, the oligomerization result in series [7] was “dimer and hexamer, less stable, detectable only by AUC, α-helical”. The “pH range of solubility” value in series [8] is recorded as “soluble at all pH values tested; also recorded: soluble over the entire range studied”.

“liraglutide: marketed lipidated GLP-1 analogue, palmitic acid (C16) linked to Lys20 via a γ-glutamic acid spacer”: the half-life in vivo in series [1] (pharmacokinetic data) was 9 to 13 h.
